Assay results taken from article PMC9622310 (Biomolecules & Therapeutics, 2022).
Several values for one entry are separate records, joined by “and”; a condition that tells them apart may be missing. Equal values may be shown once. Read-outs that look alike come from different tables or passages of the source. Each block holds one compound with its values, some of them ahead of it.

Tests used:
[1] = oral 20 mg/kg; for GI24 h: remaining in gastrointestinal tract at 24 h, 20 mg/kg; for Ae0-24 h: unchanged in urine for 24 h
4% human serum albumin = details: 1 to 100 μg/mL; ref Kim et al., 2020; cited from earlier work
[2] = intestinal microsomes
[3] = type: in vivo, rat; details: for Ae0-24 h: unchanged in urine for 24 h; for clearance: CL; for CL renal: CLR; for Vd: Vss
[4] = Tissue distribution of tofacitinib 30 min after intravenous administration; type: in vivo, rat; details: 30 min after intravenous 10 mg/kg
[5] = hepatic microsomes
[6] = oxidation and N-demethylation; ref Dowty et al., 2014; cited from earlier work
in vivo = details: rat, plasma, po, 20 mg/kg; for CL renal: CLR
P-gp = details: ref Hussar, 2014; cited from earlier work
[7] = oral 20 mg/kg, male Sprague-Dawley rats; ref Lee and Kim, 2019; cited from earlier work
[8] = Rat plasma protein binding of tofacitinib by equilibrium dialysis; type: in vitro ADME; details: pH 7.4
in vitro = details: rat, intestinal microsomes, pH 7.4, CLint
CYP2C11 = assay: Immunoblot analysis of CYP2C11 in hepatic and intestinal microsomes of DSS rats; design: species or system rat
CYP3A1/2 = assay: Immunoblot analysis of CYP3A1/2 in hepatic and intestinal microsomes of DSS rats; design: species or system rat
rats = assay: Induction of ulcerative colitis by 5% DSS in drinking water; type: in vivo, rat
[9] = ref Bergan et al., 1981; cited from earlier work
[10] = rat, plasma, iv, 10 mg/kg, intravenous 10 mg/kg, CON rats
[11] = rat, plasma, iv, 10 mg/kg, intravenous 10 mg/kg, DSS rats

Decrease of CLR in DSS rats compared with CON rats [1]: 64.0% | Increase of AUC in DSS rats compared with CON rats [1]: 85.5% | Ae0-24 h ([1]; CON rats): 4.13 ± 2.71 % of dose | Ae0-24 h ([1]; DSS rats): 2.40 ± 1.26 % of dose | Km, DSS versus CON rats [2]: comparable | Decrease of CLint in DSS rats compared with CON rats ([2]; p=0.0679): 39.1% | Decrease of CL in DSS rats compared with CON rats ([3]; intravenous 10 mg/kg): 47.7% | Decrease of CLNR in DSS rats compared with CON rats ([3]; intravenous 10 mg/kg): 45.3% | Decrease of CLR in DSS rats compared with CON rats ([3]; intravenous 10 mg/kg): 77.6% | Decrease of Vss in DSS rats compared with CON rats ([3]; intravenous 10 mg/kg): 43.2% | Increase of AUC in DSS rats compared with CON rats ([3]; intravenous 10 mg/kg): 92.3% | CLNR ([3]; intravenous 10 mg/kg, CON rats): 34.0 ± 5.54 mL/min/kg | Ae0-24 h ([3]; intravenous 10 mg/kg, CON rats): 3.97 ± 2.93 % of dose | CLNR ([3]; intravenous 10 mg/kg, DSS rats): 18.6 ± 1.65 mL/min/kg | Ae0-24 h ([3]; intravenous 10 mg/kg, DSS rats): 2.73 ± 1.89 % of dose | CLR′ (CLR recalculated from free fraction in plasma) ([3]; intravenous, CON rats): 5.07 mL/min/kg | Contribution of CLR to CL ([3]; intravenous, CON rats): 8.27% | CLR′ (CLR recalculated from free fraction in plasma) ([3]; intravenous, DSS rats): 1.10 mL/min/kg | Contribution of CLR to CL ([3]; intravenous, DSS rats): 3.55% | half-life ([3]; rat, plasma, iv, 10 mg/kg): 31 ± 5.36 min | AUC ([3]; rat, plasma, iv, 10 mg/kg, intravenous 10 mg/kg, CON rats (n=7)): 4520 ng·h/mL | AUC ([3]; rat, plasma, iv, 10 mg/kg, intravenous 10 mg/kg, DSS rats (n=6)): 8680 ng·h/mL | clearance [3, 10]: 37.1 ± 5.68 mL/min/kg | clearance [3, 11]: 19.4 ± 2.26 mL/min/kg | CL renal [3, 10]: 3.07 ± 1.4 mL/min/kg | CL renal [3, 11]: 0.688 ± 0.149 mL/min/kg | MRT [3, 10]: 20.3 min | MRT [3, 11]: 31.9 min | Vd [3, 10]: 0.767 ± 0.286 L/kg | Vd [3, 11]: 0.436 ± 0.164 L/kg | Concentrations in stomach, small intestine and mesentery, DSS versus CON rats [4]: significantly higher | Plasma concentration, DSS versus CON group [4]: significantly higher | Distribution in rat tissues ([4]; both groups): widely distributed | Decrease of CLint in DSS rats compared with CON rats [5]: 75.5% | Km, DSS versus CON rats [5]: comparable | AUC (in vivo; CON rats (n=6)): 2650 ng·h/mL | AUC (in vivo; DSS rats (n=6)): 4920 ng·h/mL | CL renal (in vivo; CON rats): 5.47 ± 4.05 mL/min/kg | CL renal (in vivo; DSS rats): 1.97 ± 1.14 mL/min/kg | Cmax (in vivo; CON rats): 2360 ± 587 ng/mL | Cmax (in vivo; DSS rats): 2460 ± 1050 ng/mL | Tmax (in vivo; CON rats): 19.2 min | Tmax (in vivo; DSS rats): 25 min | fraction unbound at 24 h, 10 μg/mL ([8]; fresh plasma from CON and DSS rats): 0.606 to 0.626 | fraction unbound at 24 h, 10 μg/mL ([8]; fresh plasma from CON rats): 0.606 | fraction unbound at 24 h, 10 μg/mL ([8]; fresh plasma from DSS rats): 0.626 | microsomal CLint (in vitro; CON rats): 5.81 µL/min/mg | microsomal CLint (in vitro; DSS rats): 3.54 µL/min/mg
Compound: C[C@@H]1CCN(C(=O)CC#N)C[C@@H]1N(C)c1ncnc2[nH]ccc12 [tofacitinib, Tofacitinib]
GI24 h ([1]; CON rats): 0.124 % of dose and 0.124 ± 0.141 % of dose | GI24 h ([1]; DSS rats): 1.10 % of dose and 1.10 ± 0.782 % of dose | Concentration dependence of binding to 4% human serum albumin (4% human serum albumin): independent of tofacitinib concentrations | GI24 h ([3]; intravenous, both CON and DSS rats): less than 0.484 % of the intravenous dose | Fraction metabolized by hepatic CYP3A4 and CYP2C19 [6]: approximately 70% | P-gp substrate status (P-gp): substrate of P-gp | F [7]: 29.1%

Decrease in protein expression of CYP2C11 (CYP2C11; intestine of DSS rats): 78.5% | Decrease in protein expression of CYP2C11 (CYP2C11; liver of DSS rats): 43.3% | Decrease in protein expression of CYP3A1/2 (CYP3A1/2; intestine of DSS rats): 99.3% | Decrease in protein expression of CYP3A1/2 (CYP3A1/2; liver of DSS rats): 80.1%
Compound: dextran sulfate sodium [DSS]
Decrease in colon length compared to CON rats (rats; 5% DSS (w/v) in drinking water for 10 days): 49.0% | Body weight decrease (rats; 5% DSS (w/v) in drinking water for 10 days, DSS rats): 1.14% | CLCR (rats; DSS rats): 2.68 mL/min/kg | Decrease of plasma albumin (rats; DSS rats versus CON rats): 15.8% | Increase of urea nitrogen (rats; DSS rats versus CON rats): 86.4%

Compound: Cc1ncc([N+](=O)[O-])n1CCO [metronidazole]
Increase of plasma concentration in patients with ulcerative colitis [9]: 50%
